Source: patent US8062639B2 (priority 2008, dated 2011)

Legend:
soluble dog Na/K ATPase = target: T1, soluble dog Na/K ATPase (Canis lupus familiaris, UniProt P50997); assay: Na/K ATPase activity by pNPP conversion; type: biochemical; settings: rate at 400 nm over 30 min, various concentrations (FIG. 2)
T1 construct: soluble Dog kidney Na/K ATPase; purchased SigmaAldrich; host or cells: dog kidney (the tissue is named only in the general description)

conscious rats = type: in vivo, rat; settings: for restoration of plasma/blood volume after hemorrhage / death after hemorrhage plus infusion: 20 ml/kg hemorrhage plus infusion of 2 mg/ml (5 ml/hr) (FIG. 3); for change in plasma volume, infusion alone: infusion of 2 mg/ml (5 ml/hr), no hemorrhage, 8 rats/group (FIG. 3)

SMILES	inhibition of Na/K ATPase (conversion of pNPP to pNP) (soluble dog Na/K ATPase)	restoration of plasma/blood volume after hemorrhage (conscious rats)	death after hemorrhage plus infusion (conscious rats)	change in plasma volume, infusion alone (conscious rats)
C[C@]12CC[C@H](O)C[C@@]1(O)CC[C@@H]1[C@@H]2CC[C@]2(C)[C@@H](c3ccc(=O)oc3)C[C@H]3O[C@]132 [marinobufogenin]	inhibits Na/K ATPase in a dose-response manner	did not have this effect	–	–
C[C@@H]1O[C@@H](O[C@H]2C[C@@H](O)[C@]3(CO)[C@H]4[C@H](O)C[C@]5(C)[C@@H](C6=CC(=O)OC6)CC[C@]5(O)[C@@H]4CC[C@]3(O)C2)[C@H](O)[C@H](O)[C@H]1O [ouabain]	inhibits Na/K ATPase in a dose-response manner	prevents restoration	leads to death	no effect on plasma volume
C[C@]12CC[C@H](O)C[C@H]1CC[C@@H]1[C@@H]2CC[C@]2(C)[C@@H](c3ccc(=O)oc3)CC[C@]12O [Bufalin]	–	prevents restoration	leads to death	no effect on plasma volume
